Measurements as given in patent publication US7261876B2, “Multivalent constructs for therapeutic and diagnostic applications” (Bracco International BV, priority 2002, dated 2007).
Like-named read-outs stand apart in the source and are kept apart here. Positions of bridges follow the written chain, without caps; N, C: chain ends. Non-standard residues stand in square brackets, D forms with d. Residues, ends and D or L forms follow the SMILES beside them. Lys(ivDde) = CC(C)CC(NCCCC[C@H](N)C(=O)O)=C1C(=O)CC(C)(C)CC1=O

Target: T1, KDR (Homo sapiens, UniProt P35968)
T1 construct: host or cells: HUVEC
T1 sequence (P35968 20-1356): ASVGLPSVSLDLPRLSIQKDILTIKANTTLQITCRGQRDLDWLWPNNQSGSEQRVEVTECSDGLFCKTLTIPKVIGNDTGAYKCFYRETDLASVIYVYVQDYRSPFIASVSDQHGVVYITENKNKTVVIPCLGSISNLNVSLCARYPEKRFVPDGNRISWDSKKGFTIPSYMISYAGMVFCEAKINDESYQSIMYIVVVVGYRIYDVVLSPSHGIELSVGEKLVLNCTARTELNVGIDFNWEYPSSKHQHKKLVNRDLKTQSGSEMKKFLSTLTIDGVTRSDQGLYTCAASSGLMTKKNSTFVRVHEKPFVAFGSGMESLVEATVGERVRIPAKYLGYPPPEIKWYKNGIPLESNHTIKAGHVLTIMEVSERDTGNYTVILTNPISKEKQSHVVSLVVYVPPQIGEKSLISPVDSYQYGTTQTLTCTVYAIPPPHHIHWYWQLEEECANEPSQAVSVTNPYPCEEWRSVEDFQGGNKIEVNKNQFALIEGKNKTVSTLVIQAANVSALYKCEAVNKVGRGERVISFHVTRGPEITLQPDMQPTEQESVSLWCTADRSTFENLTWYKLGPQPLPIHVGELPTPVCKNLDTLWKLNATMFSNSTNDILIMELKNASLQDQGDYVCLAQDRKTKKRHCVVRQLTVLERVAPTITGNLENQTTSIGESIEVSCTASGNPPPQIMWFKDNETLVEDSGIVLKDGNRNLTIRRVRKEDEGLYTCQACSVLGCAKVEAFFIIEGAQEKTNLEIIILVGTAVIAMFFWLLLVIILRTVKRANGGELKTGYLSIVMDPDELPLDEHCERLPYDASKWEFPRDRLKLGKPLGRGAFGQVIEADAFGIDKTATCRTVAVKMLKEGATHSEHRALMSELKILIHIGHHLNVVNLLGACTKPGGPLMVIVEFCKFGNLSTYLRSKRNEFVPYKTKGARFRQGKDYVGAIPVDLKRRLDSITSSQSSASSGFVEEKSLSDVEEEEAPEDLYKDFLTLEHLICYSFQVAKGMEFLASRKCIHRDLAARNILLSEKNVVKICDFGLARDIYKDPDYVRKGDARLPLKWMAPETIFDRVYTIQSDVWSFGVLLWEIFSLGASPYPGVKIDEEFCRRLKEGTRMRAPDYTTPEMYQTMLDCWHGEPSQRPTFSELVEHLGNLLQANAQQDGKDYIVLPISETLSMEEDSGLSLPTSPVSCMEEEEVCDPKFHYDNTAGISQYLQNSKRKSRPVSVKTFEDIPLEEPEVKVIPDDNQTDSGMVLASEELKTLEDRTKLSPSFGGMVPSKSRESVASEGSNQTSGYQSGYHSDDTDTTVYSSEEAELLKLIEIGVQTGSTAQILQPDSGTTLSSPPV
Experiment: VEGF-induced KDR receptor activation (phosphorylation) assay in HUVECs
Type: cell-based
Details: for inhibition at 10 µM: HUVEC, read-out: inhibition of VEGF-induced KDR phosphorylation
Source text: Human umbilical vein endothelial cells (HUVECs) (Biowhittaker Cat No. CC-2519) were obtained frozen on dry ice and stored in liquid nitrogen until thawing. These cells were thawed, passaged, and maintained as described by the manufacturer in EGM-MV medium (Biowhittaker Cat No. CC-3125). Cells seeded into 100 mm dishes were allowed to become confluent, then cultured overnight in basal EBM medium lacking serum (Biowhittaker Cat No. CC-3121). The next morning, the medium in the dishes was replaced with 10 mL fresh EBM medium at 37° C. containing either no additive (negative control), 5 ng/mL VEGF (Calbiochem Cat No. 676472 or Peprotech Cat No. 100-20) (positive control), or 5 ng/mL VEGF plus the indicated concentration of the KDR-binding peptide (prepared as described above). In some cases, a neutralizing anti-KDR antibody (Cat No. AF357, R&D Systems) was used as a positive control inhibitor of activation. In such cases, the antibody was pre-incubated with the test cells for 30 min at 37° C. prior to the addition of fresh medium containing both VEGF and the antibody. After incubating the dishes 5 min in a 37° C. tissue culture incubator they were washed three times with ice-cold Dulbecco's phosphate buffered saline (D-PBS) containing calcium and magnesium and placed on ice without removing the last 10 mL of D-PBS. The first dish of a set was drained and 0.5 mL of Triton lysis buffer was added (20 mM Tris base pH 8.0, 137 mM NaCl, 10% glycerol, 1% Triton X-100, 2 mM EDTA (ethylenediaminetetraacetic acid), 1 mM PMSF (phenylmethylsulfonylfluoride), 1 mM sodium orthovanadate, 100 mM NaF, 50 mM sodium pyrophosphate, 10 μg/mL leupeptin, 10 μg/mL aprotinin). The cells were quickly scraped into the lysis buffer using a cell scraper (Falcon, Cat No. 353087), dispersed by pipeting up and down briefly, and the resulting lysate was transferred to the second drained dish of the pair. Another 0.5 mL of lysis buffer was used to rinse out the first dish then transferred to the second dish, which was then also scraped and dispersed. The pooled lysate from the two dishes was transferred to a 1.5 mL Eppindorf tube. The above procedure was repeated for each of the controls and test samples (KDR-binding peptides), one at a time. The lysates were stored on ice until all the samples had been processed. At this point samples were either stored at −70° C. or processed to the end of the assay without interruption.
The lysates, either freshly prepared or frozen and thawed, were precleared by adding 20 μL of protein A-sepharose beads (Sigma 3391, preswollen in D-PBS), washed three times with a large excess of D-PBS, reconstituted with 6 mL D-PBS to generate a 50% slurry) and rocked at 4° C. for 30 min. The beads were pelleted by centrifugation for 2 min in a Picofuge (Stratgene, Cat No. 400550) at 2000×g and the supernatants transferred to new 1.5 mL tubes. 20 μg of anti-Flk-1 antibody (Santa Cruz Biotechnology, Cat No. sc-504) was added to each tube, and the tubes were incubated overnight (16–18 h) at 4° C. on a rotator to immunoprecipitate KDR. The next day 40 μL of protein A-sepharose beads were added to the tubes, which were then incubated at 4° C. for 1 h on a rotator. The beads in each tube were subsequently washed three times by centrifuging for 2 min in a Picofuge, discarding the supernatant, and dispersing the beads in 1 mL freshly added TBST buffer (20 mM Tris base pH 7.5, 137 mM NaCl, and 0.1% Tween 20). After centrifuging and removing the liquid from the last wash, 40 μL of Laemmli SDS-PAGE sample buffer (Bio-Rad, Cat No. 161-0737) was added to each tube and the tubes were capped and boiled for 5 min. After cooling, the beads in each tube were pelleted by centrifuging and the supernatants containing the immunoprecipitated KDR were transferred to new tubes and used immediately or frozen and stored at −70° C. for later analysis.
Detection of phosphorylated KDR as well as total KDR in the immunoprecipitates was carried out by immunoblot analysis. […]

## CC[C@H](C)[C@@H]1NC(=O)CNC(=O)[C@H](CC(=O)O)NC(=O)[C@@H]2CCCN2C(=O)[C@H](Cc2c[nH]cn2)NC(=O)[C@H](Cc2ccc(O)cc2)NC(=O)[C@@H](NC(=O)[C@H](CCC(=O)O)NC(=O)[C@@H](NC(=O)[C@H](Cc2c[nH]c3ccccc23)NC(=O)CNC(=O)[C@H](C)NC(C)=O)[C@@H](C)CC)CSSC[C@@H](C(=O)N[C@@H](Cc2ccc(O)cc2)C(=O)N[C@@H](Cc2c[nH]cn2)C(=O)N[C@@H](Cc2ccccc2)C(=O)NCC(=O)N[C@H](C(=O)NCC(=O)NCC(=O)NCC(=O)N[C@@H](CCCCN)C(N)=O)[C@@H](C)O)NC1=O [P2-D] (Ac-AGWIECYHPDGICYHFGTGGGK-NH2; disulfide 6-13)
  inhibition at 10 µM: ≥ 50%

## CC(=O)N[C@@H](C)C(=O)NCC(=O)N[C@@H](Cc1c[nH]c2ccccc12)C(=O)N[C@@H](CC(C)C)C(=O)N[C@@H](CCC(=O)O)C(=O)N[C@H]1CSSC[C@@H](C(=O)N[C@@H](Cc2ccc(O)cc2)C(=O)N[C@@H](CC(N)=O)C(=O)N[C@@H](Cc2ccccc2)C(=O)NCC(=O)N[C@H](C(=O)NCC(=O)NCC(=O)NCC(=O)N[C@@H](CCCCN)C(N)=O)[C@@H](C)O)NC(=O)[C@H](Cc2c[nH]cn2)NC(=O)CNC(=O)[C@H](Cc2ccccc2)NC(=O)[C@H](CCC(=O)O)NC(=O)[C@H](C)NC(=O)[C@H](Cc2ccc(O)cc2)NC1=O [P3-D] (Ac-AGWLECYAEFGHCYNFGTGGGK-NH2; disulfide 6-13)
10 μM
  inhibition at 10 µM: ≥ 50%

## CSCC[C@@H]1NC(=O)[C@H]([C@@H](C)O)NC(=O)[C@@H](NC(=O)[C@@H](NC(=O)[C@H](CC(=O)O)NC(=O)[C@@H]2CCCN2C(=O)[C@H](CC(=O)O)NC(=O)CNC(C)=O)[C@@H](C)O)CSSC[C@@H](C(=O)N[C@@H](Cc2ccccc2)C(=O)N2CCC[C@H]2C(=O)N[C@@H](C)C(=O)N[C@@H](CC(=O)O)C(=O)N2CCC[C@H]2C(=O)NCC(=O)NCC(=O)NCC(=O)N[C@@H](CCCCN)C(N)=O)NC(=O)[C@H](Cc2ccc(O)cc2)NC(=O)[C@H](Cc2c[nH]c3ccccc23)NC(=O)[C@H](CCCNC(=N)N)NC(=O)CNC(=O)[C@H](CO)NC(=O)[C@H](CC(=O)O)NC(=O)CNC(=O)[C@H](Cc2c[nH]c3ccccc23)NC1=O [P8-D] (Ac-GDPDTCTMWGDSGRWYCFPADPGGGK-NH2; disulfide 6-17)
  inhibition at 10 µM: ≥ 50%

## CC[C@H](C)[C@@H]1NC(=O)[C@H](Cc2c[nH]c3ccccc23)NC(=O)[C@H](CCC(N)=O)NC(=O)CNC(=O)[C@H](CC(N)=O)NC(=O)[C@H](Cc2c[nH]cn2)NC(=O)[C@H](CC(C)C)NC(=O)[C@H](Cc2ccc(O)cc2)NC(=O)[C@@H](NC(=O)[C@H](Cc2c[nH]cn2)NC(=O)[C@H](Cc2c[nH]cn2)NC(=O)[C@H](CC(=O)O)NC(=O)[C@H](CO)NC(=O)CNC(C)=O)CSSC[C@@H](C(=O)N[C@@H](Cc2ccc(O)cc2)C(=O)N2CCC[C@H]2C(=O)N[C@@H](Cc2ccccc2)C(=O)N[C@@H](C)C(=O)N2CCC[C@H]2C(=O)NCC(=O)NCC(=O)NCC(=O)N[C@@H](CCCCN)C(N)=O)NC1=O [P14-D] (Ac-GSDHHCYLHNGQWICYPFAPGGGK-NH2; disulfide 6-15)
10 μM
  inhibition of KDR activation: did not produce significant inhibition of KDR activation

## CC(=O)NCC(=O)N[C@@H](CC(=O)O)C(=O)N[C@@H](Cc1ccc(O)cc1)C(=O)N1CCC[C@H]1C(=O)N[C@@H](Cc1c[nH]c2ccccc12)C(=O)N[C@H]1CSSC[C@@H](C(=O)N[C@H](C(=O)N2CCC[C@H]2C(=O)N[C@@H](Cc2c[nH]c3ccccc23)C(=O)N[C@@H](CC(=O)O)C(=O)N2CCC[C@H]2C(=O)NCC(=O)NCC(=O)NCC(=O)N[C@@H](CCCCN)C(N)=O)C(C)C)NC(=O)[C@H](Cc2ccccc2)NC(=O)[C@H](CCCNC(=N)N)NC(=O)[C@H]([C@@H](C)O)NC(=O)[C@H](C(C)C)NC(=O)[C@H](CO)NC(=O)[C@H](CC(=O)O)NC(=O)[C@H](CO)NC(=O)[C@H](CC(C)C)NC(=O)[C@H](CCC(=O)O)NC(=O)[C@H](Cc2c[nH]cn2)NC1=O [P15-D] (Ac-GDYPWCHELSDSVTRFCVPWDPGGGK-NH2; disulfide 6-17)
10 μM
  inhibition of KDR activation: did not produce significant inhibition of KDR activation

## CSCC[C@H](NC(=O)[C@H](Cc1c[nH]cn1)NC(=O)[C@H](CC(=O)O)NC(=O)[C@H](CC(=O)O)NC(=O)CNC(C)=O)C(=O)N[C@H]1CSSC[C@@H](C(=O)N[C@@H](CCSC)C(=O)N[C@@H](Cc2ccc(O)cc2)C(=O)N[C@@H](Cc2c[nH]c3ccccc23)C(=O)N[C@@H](CC(=O)O)C(=O)N2CCC[C@H]2C(=O)NCC(=O)NCC(=O)NCC(=O)N[C@@H](CCCCN)C(N)=O)NC(=O)[C@H](Cc2ccccc2)NC(=O)[C@H](C(C)C)NC(=O)[C@H](Cc2c[nH]cn2)NC(=O)[C@H](CC(=O)O)NC(=O)[C@H](CCC(N)=O)NC(=O)[C@H](Cc2ccc(O)cc2)NC(=O)[C@H](CC(=O)O)NC(=O)[C@@H]2CCCN2C(=O)[C@H](CO)NC(=O)[C@H](CCCNC(=N)N)NC1=O [P16-D] (Ac-GDDHMCRSPDYQDHVFCMYWDPGGGK-NH2; disulfide 6-17)
10 μM
  inhibition of KDR activation: did not produce significant inhibition of KDR activation

## CC(=O)NCC(=O)N[C@@H](CC(=O)O)C(=O)N1CCC[C@H]1C(=O)N1CCC[C@H]1C(=O)N[C@@H](CC(C)C)C(=O)N[C@H]1CSSC[C@@H](C(=O)N[C@@H](CC(N)=O)C(=O)N2CCC[C@H]2C(=O)N[C@@H](Cc2ccccc2)C(=O)N[C@@H](CC(=O)O)C(=O)N2CCC[C@H]2C(=O)NCC(=O)NCC(=O)NCC(=O)N[C@@H](CCCCN)C(N)=O)NC(=O)[C@H](Cc2c[nH]cn2)NC(=O)[C@H](Cc2c[nH]cn2)NC(=O)[C@H](Cc2c[nH]c3ccccc23)NC(=O)[C@H](CCC(=O)O)NC(=O)[C@H](CCC(N)=O)NC(=O)[C@H]([C@@H](C)O)NC(=O)CNC(=O)[C@H](C(C)C)NC(=O)[C@H](Cc2ccccc2)NC(=O)[C@H](Cc2ccc(O)cc2)NC1=O [P17-D] (Ac-GDPPLCYFVGTQEWHHCNPFDPGGGK-NH2; disulfide 6-17)
10 μM
  inhibition of KDR activation: did not produce significant inhibition of KDR activation

## CSCC[C@@H]1NC(=O)[C@H](CCC(=O)O)NC(=O)[C@@H](NC(=O)[C@H](Cc2c[nH]c3ccccc23)NC(=O)[C@H](CO)NC(=O)CNC(=O)[C@H](CC(=O)O)NC(=O)CNC(C)=O)CSSC[C@@H](C(=O)N[C@@H](Cc2ccccc2)C(=O)N[C@@H](CO)C(=O)N[C@@H](CC(=O)O)C(=O)N[C@@H](CC(=O)O)C(=O)N2CCC[C@H]2C(=O)NCC(=O)NCC(=O)NCC(=O)N[C@@H](CCCCN)C(N)=O)NC(=O)[C@H](CC(N)=O)NC(=O)[C@H](Cc2c[nH]c3ccccc23)NC(=O)[C@H](CCCCNC(CC(C)C)=C2C(=O)CC(C)(C)CC2=O)NC(=O)CNC(=O)[C@H](C(C)C)NC(=O)[C@H](CC(=O)O)NC(=O)[C@H](CCC(N)=O)NC(=O)[C@H](CCCNC(=N)N)NC1=O [P18-E] (Ac-GDGSWCEMRQDVG[Lys(ivDde)]WNCFSDDPGGGK-NH2; disulfide 6-17)
10 μM
  inhibition of KDR activation: did not produce significant inhibition of KDR activation
